Values joined by “and” are separate entries in the source; they are usually repeats but may differ in a detail not shown here. Identical values can stand only once. Like-named read-outs stand apart in the source and are kept apart here.
How the values were obtained:
[1] = target: T1, human AChE (Homo sapiens, UniProt P22303); assay: In vitro cholinesterase inhibition (Ellman), AChE; type: biochemical; conditions: Table 2; human AChE; read-out: IC50 AChE
T1 construct: purchased Sigma-Aldrich
Experimental: (§1) Inhibitory activities of the tested compounds against AChE and BChE were measured according to Ellman et al.. Enzyme-catalysed hydrolysis of ATCHh was carried out at 25 °C in 0.1 M phosphate buffer (pH 8.0) containing 0.25 U AChE, 1 mM ATCHh as substrates, and 0.1 mM of DTNB. In experiments with BuChE, 0.1 M phosphate buffer (pH 7.0) and BuTChh as a substrate were used. The tested compounds were pre-incubated with the enzyme for two minutes prior to the addition of the substrate and the subsequent recording of hydrolysis kinetics. […] A sample without an inhibitor was used as a control (100% cholinesterase activity). A sample without a substrate was used as a blank. Experiments were performed in triplicate.

[2] = target: T2, BChE from human plasma (Homo sapiens, UniProt P06276); assay: In vitro cholinesterase inhibition (Ellman), BuChE; type: biochemical; conditions: Table 2; human BuChE; read-out: IC50 BuChE
T2 construct: butyrylcholiesterase from human plasma; purchased Sigma-Aldrich; host or cells: human plasma
T2 sequence (P06276 29-602): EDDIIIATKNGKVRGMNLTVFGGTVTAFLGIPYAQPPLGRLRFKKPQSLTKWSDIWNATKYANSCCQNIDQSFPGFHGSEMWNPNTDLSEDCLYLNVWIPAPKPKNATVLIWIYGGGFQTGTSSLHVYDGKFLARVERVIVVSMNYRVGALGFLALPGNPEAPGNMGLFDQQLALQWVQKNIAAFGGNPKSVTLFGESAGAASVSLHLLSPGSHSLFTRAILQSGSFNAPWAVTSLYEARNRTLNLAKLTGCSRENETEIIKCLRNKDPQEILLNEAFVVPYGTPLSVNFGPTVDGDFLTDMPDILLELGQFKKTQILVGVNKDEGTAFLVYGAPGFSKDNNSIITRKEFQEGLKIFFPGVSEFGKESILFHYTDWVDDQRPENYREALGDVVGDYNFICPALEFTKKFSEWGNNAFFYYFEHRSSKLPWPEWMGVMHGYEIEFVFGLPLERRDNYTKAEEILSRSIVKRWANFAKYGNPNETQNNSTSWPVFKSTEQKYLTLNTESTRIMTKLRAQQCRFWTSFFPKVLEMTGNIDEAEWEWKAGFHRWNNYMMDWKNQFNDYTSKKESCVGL
Experimental: as §1

[3] = target: T3, human BuChE (Homo sapiens, UniProt P06276); assay: Inhibition constants (Dixon and Cornish–Bowden plots), BuChE; type: biochemical
T3 construct: butyrylcholiesterase from human plasma; purchased Sigma-Aldrich; host or cells: human plasma
T3 sequence (P06276 29-602): as above
Experimental: Experiments were performed using four different concentrations of ATCh as a substrate for AChE, and with BuTCh as a substrate for BuChE. According to the analysis of Dixon and Cornish–Bowden plots for bisuracil 2b, AChE and BuChE inhibition is of a mixed type characterised both by competitive inhibition (Kci) and uncompetitive inhibition (Kui) components. For AChE, Kci was determined to be 55.7 ± 8.1 pM while Kui = 156 ± 18 pM (Figure 3A,B), and Kci = 0.13 ± 0.02 mM while Kui = 0.7 ± 0.06 mM for BuChE (Figure 3C,D). Inhibition of AChE and BuChE by bisuracil 3c was of a mixed type. For the AChE constant, Kci was 0.7 ± 0.04 nM while Kui 4.45 ± 1.76 nM (Figure 4A,B); for the BuChE constant, Kci = 0.04 ± 0.007 мM while Kui = 0.68 ± 0.08 мM (Figure 4C,D).
A UV-1800 Shimadzu (Shimadzu Co., Kyoto, Japan) spectrophotometer was utilised to conduct the measurements. The final enzyme concentration in the assays was in the picomolar range. In order to ascertain the levels of spontaneous hydrolysis of the enzyme and substrate in the absence of an inhibitor, controls were performed for each substrate concentration. The change in absorption was then recorded over a period of three minutes. The inhibition constants were determined from a Dixon plot and Cornish–Bowden transformation.

[4] = Acute toxicity, single i.p. injection; conditions: CD-1, mouse, in vivo, ip, mice
Experimental: Toxicological experiments were performed using a single i.p. injection of the tested compounds in CD-1 mice weighing 20–25 g. Stock solutions of the tested compounds were diluted in ethanol or water. The final ethanol dose was 100 mg/kg. Nine different doses of the tested compounds were used with 12 mice per dose. Animals were observed 7 days after injection, and symptoms of toxicity were recorded.

[5] = test system: scopolamine-induced amnesia in mice; assay: Novel object recognition test, scopolamine-induced amnesia; type: in vivo; conditions: scopolamine 1.5 mg/kg
Experimental: This study explored the ability of bisuracil 3c to counteract scopolamine-induced amnesia in mice, utilising behavioural assessments conducted through the novel object recognition test. […] The induction of amnesia was facilitated by the i.p. injection of scopolamine (1.5 mg/kg) 50 min prior to testing. […]. An equivalent amount of the vehicle was administered to a control group of mice.
The experiments were carried out on CD1 mice of both sexes weighing 24–25 g. The novel object recognition test was conducted over a period of three days. On the first day, the mice were placed individually into the square testing arena with black walls (50 cm in length, 50 cm in width, 38 cm in height) for 5 min without any objects. On the second day, two identical objects were placed in the central part of the arena, and the mice were allowed to explore the objects for 10 min. Test compounds were administered prior to testing on the second day. The induction of amnesia was facilitated by i.p. injection of scopolamine (1.5 mg/kg) 50 min prior to testing. Tested compounds were administered i.p. 30 min prior to testing. The control group of animals was administered with an equivalent amount of vehicle. On the third day, the mice were presented with a familiar and a novel object for 10 min. The time of exploration of each object by the mice was recorded using a digital camera. After each test, the arena was cleaned with a solution of 70% ethanol. At the end of the test, the preference index (exploration of novel object/total exploration time × 100) was calculated.

T1 sequence (P22303 32-614): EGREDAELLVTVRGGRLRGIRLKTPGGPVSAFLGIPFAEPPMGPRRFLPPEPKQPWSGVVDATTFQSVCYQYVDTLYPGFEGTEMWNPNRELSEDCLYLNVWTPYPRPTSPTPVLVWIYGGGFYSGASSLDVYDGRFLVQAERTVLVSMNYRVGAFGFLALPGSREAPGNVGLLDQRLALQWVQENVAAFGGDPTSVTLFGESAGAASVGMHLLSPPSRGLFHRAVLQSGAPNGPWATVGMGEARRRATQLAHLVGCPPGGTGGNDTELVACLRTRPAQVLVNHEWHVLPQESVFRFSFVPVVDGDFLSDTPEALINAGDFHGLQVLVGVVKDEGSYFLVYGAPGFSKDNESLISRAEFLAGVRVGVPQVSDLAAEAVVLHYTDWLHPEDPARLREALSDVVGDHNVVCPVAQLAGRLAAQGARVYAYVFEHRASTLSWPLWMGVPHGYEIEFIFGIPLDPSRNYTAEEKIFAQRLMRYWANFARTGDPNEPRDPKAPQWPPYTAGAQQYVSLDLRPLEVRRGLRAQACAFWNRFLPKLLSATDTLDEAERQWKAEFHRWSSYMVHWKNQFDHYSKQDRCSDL

CCN(CCCCCn1c(=O)ccn(CCCCCn2c(C)cc(=O)n(C)c2=O)c1=O)Cc1ccccc1C#N [3c]
IC50 [1]: 0.00278 µM and 0.0028 µM
IC50 [2]: 28 µM
Kui (uncompetitive inhibition constant), BuChE ([3]; BuTCh as substrate): 0.68 ± 0.08 мM
Ki ([3]; BuTCh as substrate, read-out: Kci (competitive inhibition constant), BuChE): 40 ± 7 µM
type of BuChE inhibition ([3]; Dixon and Cornish–Bowden plots): mixed type
LD50 at 7 days ([4]; observed 7 days, read-out: LD50 (median lethal dose)): 22.8 mg/kg
LD50 at 7 days ([4]; read-out: LD50 95% confidence limits): 15 to 28.7 mg/kg
effect on the preference index ([5]; 3c 2 mg/kg i.p. 30 min prior to testing): no significant effect
increase in the preference for the novel object compared to the scopolamine-treated group ([5]; 3c 5 mg/kg i.p. 30 min prior to testing, p = 0.01): 30.5%

Source: article PMC12027946, “Ionic and Non-Ionic Counterparts Based on Bis(Uracilyl)Alkane Moiety with Highest Selectivity Towards Acetylcholinesterase for Protection Against Organophosphate Poisoning and Treating Alzheimer’s Disease” (International Journal of Molecular Sciences, 2025)
